For one experiment, the system named is C57BL/6 mice. Briefly: Haloperidol-induced catalepsy model (bar grip test). The following applies: mouse, PO, haloperidol 3 mg/kg PO, step down latency. It is filed as in vivo. From the text:
To evaluate the potential beneficial effects to motor defects present in schizophrenics treated with typical and atypical antipsychotic agents and in Parkinson's disease patients, the compounds of the invention may be tested in a reversal of catalepsy model in which motor freezing, or catalepsy, is induced by potent dopamine D2 receptor antagonists such as haloperidol or risperidone. The method uses the “bar grip test”, in which the front paws of the mouse are placed so as to grip a 3 mm-diameter, suspended wooden bar. A “step down latency” is measured by recording the time until the mouse removes its paws from the wooden bar to the floor surface. […]
A total of seventeen (17) eight week-old, male, C57BL/6 mice (Jackson Laboratories) are used in a typical experiment testing the effect of the compound of Example 1 or 2. […] A catalepsy score is recorded for each mouse at 2, 3, 4 and 6 hours after administration of drugs. […] The latency until the mouse steps both paws down from the bar to the floor surface (i.e., step down latency) is recorded up to 120 sec. […] If none of the 10 attempts are beyond 10 sec, the longest duration recorded is used as the catalepsy score. Otherwise, the initial cataleptic duration (>10 sec) is recorded during the 120 sec testing time. Mean step down latency is calculated for each treatment group. […]

For experiment [1], the target named is recombinant full length human PDE1A (r-hPDE1A) (Homo sapiens (Human), UniProt P54750). Briefly: IMAP phosphodiesterase assay, r-hPDE1A. It counts as biochemical. The note with it: IMAP fluorescence polarization, FL-GMP substrate. From the text:
(§1) Phosphodiesterase 1B (PDE1B) is a calcium/calmodulin dependent phosphodiesterase enzyme that converts cyclic guanosine monophosphate (cGMP) to 5′-guanosine monophosphate (5′-GMP). PDE1B can also convert a modified cGMP substrate, such as the fluorescent molecule cGMP-fluorescein, to the corresponding GMP-fluorescein. The generation of GMP-fluorescein from cGMP-fluorescein can be quantitated, using, for example, the IMAP (Molecular Devices, Sunnyvale, Calif.) immobilized-metal affinity particle reagent.
(§2) Briefly, the IMAP reagent binds with high affinity to the free 5′-phosphate that is found in GMP-fluorescein and not in cGMP-fluorescein. The resulting GMP-fluorescein—IMAP complex is large relative to cGMP-fluorescein. Small fluorophores that are bound up in a large, slowly tumbling, complex can be distinguished from unbound fluorophores, because the photons emitted as they fluoresce retain the same polarity as the photons used to excite the fluorescence.
(§3) In the phosphodiesterase assay, cGMP-fluorescein, which cannot be bound to IMAP, and therefore retains little fluorescence polarization, is converted to GMP-fluorescein, which, when bound to IMAP, yields a large increase in fluorescence polarization (Δmp) Inhibition of phosphodiesterase, therefore, is detected as a decrease in Δmp.
Materials: All chemicals are available from Sigma-Aldrich (St. Louis, Mo.) except for IMAP reagents (reaction buffer, binding buffer, FL-GMP and IMAP beads), which are available from Molecular Devices (Sunnyvale, Calif.).
Assay: The following phosphodiesterase enzymes may be used: 3′,5′-cyclic-nucleotide-specific bovine brain phosphodiesterase (Sigma, St. Louis, Mo.) (predominantly PDE1B) and recombinant full length human PDE1A and PDE1B (r-hPDE1A and r-hPDE1B respectively) which may be produced e.g., in HEK or SF9 cells by one skilled in the art. The PDE1 enzyme is reconstituted with 50% glycerol to 2.5 U/ml. One unit of enzyme will hydrolyze 1.0 μmole of 3′,5′-cAMP to 5′-AMP per min at pH 7.5 at 30° C. One part enzyme is added to 1999 parts reaction buffer (30 μM CaCl2, 10 U/ml of calmodulin (Sigma P2277), 10 mM Tris-HCl pH 7.2, 10 mM MgCl2, 0.1% BSA, 0.05% NaN3) to yield a final concentration of 1.25 mU/ml. […]
(§4) The FL-GMP conversion reaction is initiated by combining 4 parts enzyme and inhibitor mix with 1 part substrate solution (0.225 μM) in a 384-well microtiter plate. […] The plate is incubated at room temperature for 1 hour to allow IMAP binding to proceed to completion, and then placed in an Envision multimode microplate reader (PerkinElmer, Shelton, Conn.) to measure the fluorescence polarization (Δmp).
(§5) A decrease in GMP concentration, measured as decreased Δmp, is indicative of inhibition of PDE activity.
On the technique in general: Polarisation of emitted light reports the rotation of a fluorescent probe.

Experiment [2] has as its target recombinant full length human PDE1B (r-hPDE1B) (Homo sapiens (Human), UniProt Q01064). Kind of experiment: IMAP phosphodiesterase assay, r-hPDE1B. The following applies: IMAP fluorescence polarization, FL-GMP substrate. It counts as biochemical.
Text: as §1, §2, §3
Materials: All chemicals are available from Sigma-Aldrich (St. Louis, Mo.) except for IMAP reagents (reaction buffer, binding buffer, FL-GMP and IMAP beads), which are available from Molecular Devices (Sunnyvale, Calif.). […]
as §4, §5

The test system of the next experiment is rats. Kind of experiment: Novel Object Recognition (NOR) assay. It counts as in vivo. The following applies: rat, 0.3 mg/Kg PO, dosed 2 hours before T1, p<0.01. The source says: To measure the cognition-enhancing effects of the compounds of the invention, the candidate compounds may be evaluated in a Novel Object Recognition (NOR) assay. This assay protocol is described in detail in Ennaceur et al., Behav. Brain Res. (1988) 31:47-59 and Prickaerts et al., Eur. J. Pharmacol. (1997) 337:125-136, the contents of each of which are incorporated by reference in their entirety. In this protocol, the rats are introduced to a chamber at time T1 and allowed to interrogate two identical “familiar objects” for six minutes. Twenty four hours later, they are re-introduced to this chamber, where one of the familiar objects has been replaced with a novel object. The “discrimination index”, a measure of the time spent in close proximity to the novel over the familiar object, may then be measured. Since rodents will forget the original experience at T1 within 4 hours, this test with a 24 h interval is a measure of strong cognitive enhancement.
This assay protocol can be modified in order to evaluate different phases of memory. There are three general phases of memory, namely, acquisition, consolidation and retrieval. In this modified protocol, the rats may be dosed with the candidate compound two hours before T1 and tested 24 h later, without additional dosing. This is a test of the acquisition process. […]

pIC50: −log10 of the molar value.

As usually defined, the pIC50 is the negative decadic logarithm of the IC50, by convention in mol/L. For the molecule `CCSc1c2c(nn1Cc1ccc(-c3ccc(F)cn3)cc1)N1CC(C)(C)N=C1N(C)C2=O` [Example 1, 3-(ethylthio)-2-(4-(5-fluoropyridin-2-yl)benzyl)-5,7,7-trimethyl-7,8-dihydro-2H-imidazo[1,2-a]pyrazolo[4,3-e]pyrimidin-4(5H)-one], the “minimal dose active in catalepsy model” value in the experiment on C57BL/6 mice is less than 0.1 mg/kg. Moreover, the pIC50 in experiment [1] was 8.57; in experiment [2], 4.96. Also, the “activity versus vehicle in Novel Object Recognition” value with rats is “active versus vehicle”.

For the molecule `CCSc1c2c(nn1Cc1ccc(-c3cccc(F)n3)cc1)N1CC(C)(C)N=C1N(C)C2=O` [Example 2, 3-(ethylthio)-2-(4-(6-fluoropyridin-2-yl)benzyl)-5,7,7-trimethyl-7,8-dihydro-2H-imidazo[1,2-a]pyrazolo[4,3-e]pyrimidin-4(5H)-one], the “minimal dose active in catalepsy model” value in the experiment on C57BL/6 mice is less than 0.1 mg/kg. The pIC50 in experiment [1] was 9.00; in experiment [2] it was 5.40.

On to `CCSc1c2c(nn1Cc1ccc(-c3cccc(F)n3)cc1)N1C(=N[C@@H]3CCC[C@@H]31)N(C)C2=O` [Example 3-A, (6aR,9aS)-5,6a,7,8,9,9a-hexahydro-5-methyl-3-(ethylthio)-2-(4-(6-fluoropyridin-2-yl)benzyl)-cyclopent[4,5]imidazo[1,2-a]pyrazolo[4,3-e]pyrimidin-4(2H)-one], for which the pIC50 in experiment [1] was 8.82; in experiment [2], 4.57.

`CC(C)Sc1c2c(nn1Cc1ccc(-c3cccc(F)n3)cc1)N1C(=N[C@@H]3CCC[C@@H]31)N(C)C2=O` [Example 3-B, (6aR,9aS)-5,6a,7,8,9,9a-hexahydro-5-methyl-3-(isopropylthio)-2-(4-(6-fluoropyridin-2-yl)benzyl)-cyclopent[4,5]imidazo[1,2-a]pyrazolo[4,3-e]pyrimidin-4(2H)-one]: the pIC50 in experiment [1] was 8.22.

The values above are taken from patent publication US10561656B2, “Organic compounds” (INTRA-CELLULAR THERAPIES, INC., priority 2011, dated 2020).
